According to BindingDB's records for doi:10.1021/jm00164a028 (Wyeth Research, 1990):

Each molecule was assayed against Thromboxane-A synthase (Oryctolagus cuniculus) (assay: Inhibition of Thromboxane A2 synthetase in rabbit platelets).

In order of rising IC50:
1. CCOC(=O)C1=C(Cn2ccnc2)N=C(C)C(C(=O)OCC)C1c1cccc([N+](=O)[O-])c1 (stereo not drawn)  1.4 µM
2. CCOC(=O)C1=C(Cn2ccnc2)N=C(C)C(C(=O)OC(C)C)C1c1cccc([N+](=O)[O-])c1 (stereo not drawn)  2 µM
3. CCOC(=O)C1=C(Cn2ccnc2)N=C(C)C(C(=O)OC)C1c1ccccc1[N+](=O)[O-] (stereo not drawn)  3.2 µM
4. CCOC(=O)C1=C(Cn2ccnc2)N=C(C)C(C(=O)OC)C1c1cccc([N+](=O)[O-])c1 (stereo not drawn)  5 µM
5. CCOC(=O)C1=C(CCn2ccnc2)N=C(C)C(C(=O)OCC)C1c1cccc([N+](=O)[O-])c1 (stereo not drawn)  11 µM
6. CCOC(=O)C1=C(Cn2ccnc2)N=C(C)C(C(=O)OC)C1c1cccc(C(F)(F)F)c1Cl (stereo not drawn)  16 µM
7. CCOC(=O)C1=C(Cn2ccnc2)N=C(C)C(C(=O)OC(C)(C)C)C1c1cccc([N+](=O)[O-])c1 (stereo not drawn)  23 µM
8. CCOC(=O)C1=C(COCCn2ccnc2)N=C(C)C(C(=O)OC)C1c1cccc([N+](=O)[O-])c1 (stereo not drawn)  115 µM
